Here are results for 11 compounds from patent publication US10358463B2, “Immunomodulators” (BRISTOL-MYERS SQUIBB COMPANY, priority 2016, dated 2019).

Usually IC50 stands for the concentration needed to halve the response being measured. Low values mean greater potency in that assay, high ones weaker potency in that assay.

Numbered stars: 1 amine (or outer) side, 2 acyl side, 3 side chain; on linkers, the order of the positions; unused ones are H or OH. Bridge positions count the residues as written; N and C are the ends. Square brackets hold non-standard residues; d marks the D form. Peptide text beside a SMILES is read from it. Trp(1-CH2CONHSO2Me) = CS(=O)(=O)NC(=O)Cn1cc(C[C@H](N)C(=O)O)c2ccccc21; X1 = O=C(O)Cn1c(C(=O)O)c(C[C@H](N[*:1])C(=O)[*:2])c2ccccc21; Ala(4-isoquinolinyl) = N[C@@H](Cc1cncc2ccccc12)C(=O)O; X13 = O=C(O)Cc1nc(C[C@H](N[*:1])C(=O)[*:2])c2ccccn12; X5 = O=C(O)Cn1nc(C[C@H](N[*:1])C(=O)[*:2])c2ccccc21; X2 = O=C(O)Cc1cn(CC(N[*:1])C(=O)[*:2])c2cccnc12; X16 = O=C([C@H](Cc1cccc2ccncc12)N[*:1])[*:2]; Phe(4-F) = N[C@@H](Cc1ccc(F)cc1)C(=O)O; Hyp = O=C(O)[C@@H]1C[C@@H](O)CN1; NMeNle = CCCC[C@H](NC)C(=O)O; Pen = CC(C)(S)[C@H](N)C(=O)O; Pip = O=C(O)[C@@H]1CCCCN1; NMeA = CN[C@@H](C)C(=O)O; Dab = NCC[C@H](N)C(=O)O; Dap = NC[C@H](N)C(=O)O; Sar = CNCC(=O)O

The target in the first assay is T1, PD-1-Ig binding to PD-L1-TVMV-His (PD-L1-His) (Homo sapiens, UniProt Q9NZQ7).
T1 construct: hPDL1 (19-239)-TVMV-His; TVMV protease cleavage site (C); made in house; host or cells: HEK293T cells
T1 sequence (Q9NZQ7 with tags, fused parts or gaps): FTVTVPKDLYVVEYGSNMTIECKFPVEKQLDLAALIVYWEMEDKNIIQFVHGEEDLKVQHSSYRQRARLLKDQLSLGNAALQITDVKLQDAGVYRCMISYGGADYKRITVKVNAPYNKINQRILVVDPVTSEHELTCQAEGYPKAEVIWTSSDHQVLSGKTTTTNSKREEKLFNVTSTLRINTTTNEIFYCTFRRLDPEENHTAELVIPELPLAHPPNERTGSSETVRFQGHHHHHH
Briefly: PD-1/PD-L1 Homogenous Time-Resolved Fluorescence (HTRF) binding assay. To be noted: PD-1-Ig (20 nM)/PD-L1-His (10 nM); numeric value. The text has this:
The ability of the macrocyclic peptides of the present disclosure to bind to PD-L1 was investigated using a PD-1/PD-L1 Homogenous Time-Resolved Fluorescence (HTRF) binding assay.
Homogenous Time-Resolved Fluorescence (HTRF) Assays of Binding of Soluble PD-1 to Soluble PD-L1. Soluble PD-1 and soluble PD-L1 refers to proteins with carboxyl-end truncations that remove the transmembrane-spanning regions and are fused to heterologous sequences, specifically the Fc portion of the human immunoglobuling G sequence (Ig) or the hexahistidine epitope tag (His). All binding studies were performed in an HTRF assay buffer consisting of dPBS supplemented with 0.1% (w/v) bovine serum albumin and 0.05% (v/v) Tween-20. For the PD-1-Ig/PD-L1-His binding assay, inhibitors were pre-incubated with PD-L1-His (10 nM final) for 15 m in 4 μl of assay buffer, followed by addition of PD-1-Ig (20 nM final) in 1 μl of assay buffer and further incubation for 15 m. PD-L1 fusion proteins from either human, cynomologous macaques, mouse, or other species were used. HTRF detection was achieved using europium crypate-labeled anti-Ig monoclonal antibody (1 nM final) and allophycocyanin (APC) labeled anti-His monoclonal antibody (20 nM final). Antibodies were diluted in HTRF detection buffer and 5 μl was dispensed on top of binding reaction. The reaction was allowed to equilibrate for 30 minutes and signal (665 nm/620 nm ratio) was obtained using an EnVision fluorometer. Additional binding assays were established between PD-1-Ig/PD-L2-His (20 and 5 nM, respectively), CD80-His/PD-L1-Ig (100 and 10 nM, respectively) and CD80-His/CTLA4-Ig (10 and 5 nM, respectively). Binding/competition studies between biotinylated Compound No. 71 and human PD-L1-His were performed as follows. Macrocyclic peptide inhibitors were pre-incubated with PD-L1-His (10 nM final) for 60 minutes in 4 μl of assay buffer followed by addition of biotinylated Compound No. 71 (0.5 nM final) in 1 μl of assay buffer. Binding was allowed to equilibrate for 30 minutes followed by addition of europium crylated labeled Streptavidin (2.5 pM final) and APC-labeled anti-His (20 nM final) in 5 μl of HTRF buffer. The reaction was allowed to equilibrate for 30 m and signal (665 nm/620 nm ratio) was obtained using an EnVision fluorometer.
Recombinant Proteins. Carboxyl-truncated human PD-1 (amino acids 25-167) with a C-terminal human Ig epitope tag [hPD-1 (25-167)-3S-IG] and human PD-L1 (amino acids 18-239) with a C-terminal His epitope tag [hPD-L1(19-239)-tobacco vein mottling virus protease cleavage site (TVMV)-His] were expressed in HEK293T cells and purified sequentially by recombinant Protein A affinity chromatography and size exclusion chromatography. Human PD-L2-His (Sino Biologicals), CD80-His (Sino Biologicals), CTLA4-Ig (RnD Systems) were all obtained through commercial sources.
A general note: In TR-FRET formats the signal depends on donor and acceptor labels being close together.
As for `CCCC[C@H]1C(=O)N(C)[C@@H](CCCC)C(=O)N[C@@H](CC(C)C)C(=O)N[C@H](C(=O)NCC(N)=O)CSCC(=O)N[C@@H](Cc2ccc(O)cc2)C(=O)N(C)[C@@H](C)C(=O)N[C@@H](CC(N)=O)C(=O)N2CCC[C@H]2C(=O)N[C@@H](CN)C(=O)N[C@@H](CC(C)C)C(=O)N2C[C@H](O)C[C@H]2C(=O)N[C@@H](Cc2c[nH]c3ccccc23)C(=O)N[C@@H](CCN)C(=O)N[C@@H](Cc2cn(CC(=O)NS(C)(=O)=O)c3ccccc23)C(=O)N1C` [Example 1001] ({CH2CO}-Y[NMeA]NP[Dap]L[Hyp]W[Dab][Trp(1-CH2CONHSO2Me)][NMeNle][NMeNle]LCG-NH2; thioether N-14), the IC50 worked out at 4 nM.

The assay is the same for the next values; noted with them: PD-1-Ig (20 nM)/PD-L1-His (10 nM); range class.
Compound `CCCC[C@H]1C(=O)N(C)[C@@H](CCCC)C(=O)N[C@@H](CC(C)C)C(=O)N[C@H](C(N)=O)CSCC(=O)N[C@@H](Cc2ccc(O)cc2)C(=O)N(C)[C@@H](C)C(=O)N[C@@H](CC(N)=O)C(=O)N(C)CC(=O)N[C@@H](CN)C(=O)N[C@@H](CC(C)C)C(=O)N2C[C@H](O)C[C@H]2C(=O)N[C@@H](Cc2c[nH]c3ccccc23)C(=O)N[C@@H](CCN)C(=O)N[C@@H](Cc2c(C(=O)O)n(CC(=O)O)c3ccccc23)C(=O)N1C` [Example 1018] ({CH2CO}-Y[NMeA]N[Sar][Dap]L[Hyp]W[Dab][X1][NMeNle][NMeNle]LC-NH2; thioether N-14) yielded an IC50 of 10 to 99 nM.
On the same count and under the same terms, the value for `CCCC[C@H]1C(=O)N(C)[C@@H](CCCC)C(=O)N[C@@H](CC(C)C)C(=O)N[C@H](C(=O)NCC(N)=O)CSCC(=O)N[C@@H](Cc2ccc(O)cc2)C(=O)N(C)[C@@H](C)C(=O)N[C@@H](CC(N)=O)C(=O)N2CCC[C@H]2C(=O)N[C@@H](CN)C(=O)N[C@@H](CC(C)C)C(=O)N2C[C@H](O)C[C@H]2C(=O)N[C@@H](Cc2c[nH]c3ccccc23)C(=O)N[C@@H](CCN)C(=O)N[C@@H](Cc2nc(CC(=O)O)n3ccccc23)C(=O)N1C` [Example 1016] ({CH2CO}-Y[NMeA]NP[Dap]L[Hyp]W[Dab][X13][NMeNle][NMeNle]LCG-NH2; thioether N-14) was 1 to 9.9 nM; that for `CCCC[C@H]1C(=O)N(C)[C@@H](CCCC)C(=O)N[C@@H](CCCNC(=N)N)C(=O)N[C@H](C(=O)NCC(N)=O)CSCC(=O)N[C@@H](Cc2ccc(O)cc2)C(=O)N(C)[C@@H](C)C(=O)N[C@@H](CC(N)=O)C(=O)N2CCC[C@H]2C(=O)N[C@@H](Cc2cnc[nH]2)C(=O)N[C@@H](CC(C)C)C(=O)N2C[C@H](O)C[C@H]2C(=O)N[C@@H](Cc2c[nH]c3ccccc23)C(=O)N[C@@H](CO)C(=O)N[C@@H](Cc2cncc3ccccc23)C(=O)N1C` [Example 1254] ({CH2CO}-Y[NMeA]NPHL[Hyp]WS[Ala(4-isoquinolinyl)][NMeNle][NMeNle]RCG-NH2; thioether N-14) was 10 to 99 nM.
On the same count and under the same terms, under `CCCC[C@H]1C(=O)N(C)[C@@H](CCCC)C(=O)N[C@@H](CC(C)C)C(=O)N[C@H](C(N)=O)C(C)(C)SCC(=O)N[C@@H](Cc2ccc(F)cc2)C(=O)N2CCCC[C@H]2C(=O)N[C@@H](CC(=O)O)C(=O)N2CCC[C@H]2C(=O)N[C@@H](CN)C(=O)N[C@@H](CCC(=O)O)C(=O)N2C[C@H](O)C[C@H]2C(=O)N[C@@H](Cc2c[nH]c3ccccc23)C(=O)N[C@@H](CCN)C(=O)N[C@@H](Cc2cn(CC(=O)NS(C)(=O)=O)c3ccccc23)C(=O)N1C` [Example 1003] ({CH2CO}-[Phe(4-F)][Pip]DP[Dap]E[Hyp]W[Dab][Trp(1-CH2CONHSO2Me)][NMeNle][NMeNle]L[Pen]-NH2; thioether N-14) stands 1 to 9.9 nM; under `CCCC[C@H]1C(=O)N(C)[C@@H](CCCC)C(=O)N[C@@H](C)C(=O)N[C@H](C(=O)NCC(N)=O)CSCC(=O)N[C@@H](Cc2ccc(O)cc2)C(=O)N(C)[C@@H](C)C(=O)N[C@@H](CC(N)=O)C(=O)N2CCC[C@H]2C(=O)N[C@@H](Cc2cnc[nH]2)C(=O)N[C@@H](CCC(N)=O)C(=O)N2C[C@H](O)C[C@H]2C(=O)N[C@@H](Cc2c[nH]c3ccccc23)C(=O)N[C@@H](CO)C(=O)N[C@@H](Cc2cccc3ccncc23)C(=O)N1C` [Example 1271] ({CH2CO}-Y[NMeA]NPHQ[Hyp]WS[X16][NMeNle][NMeNle]ACG-NH2; thioether N-14), 10 to 99 nM.
The compound `CCCC[C@H]1C(=O)N(C)[C@@H](CCCC)C(=O)N[C@@H](CC(C)C)C(=O)N[C@H](C(=O)NCC(N)=O)CSCC(=O)N[C@@H](Cc2ccc(O)cc2)C(=O)N(C)[C@@H](C)C(=O)N[C@@H](CC(N)=O)C(=O)N2CCC[C@H]2C(=O)N[C@@H](CN)C(=O)N[C@@H](CC(C)C)C(=O)N2C[C@H](O)C[C@H]2C(=O)N[C@@H](Cc2c[nH]c3ccccc23)C(=O)N[C@@H](CCN)C(=O)N[C@@H](Cc2nn(CC(=O)O)c3ccccc23)C(=O)N1C` [Example 10500] ({CH2CO}-Y[NMeA]NP[Dap]L[Hyp]W[Dab][X5][NMeNle][NMeNle]LCG-NH2; thioether N-14) returned a half-inhibitory concentration (IC50) of 1 to 9.9 nM.
The compound `CCCC[C@H]1C(=O)N(C)[C@@H](CCCC)C(=O)N[C@@H](CC(C)C)C(=O)N[C@H](C(N)=O)C(C)(C)SCC(=O)N[C@@H](Cc2ccc(F)cc2)C(=O)N2CCCC[C@H]2C(=O)N[C@@H](CC(=O)O)C(=O)N2CCC[C@H]2C(=O)N[C@@H](Cc2cnc[nH]2)C(=O)N[C@@H](CCC(=O)O)C(=O)N2C[C@H](O)C[C@H]2C(=O)N[C@@H](Cc2c[nH]c3ccccc23)C(=O)N[C@@H](CCN)C(=O)N[C@@H](Cc2cn(CC(=O)NS(C)(=O)=O)c3ccccc23)C(=O)N1C` [Example 1006] ({CH2CO}-[Phe(4-F)][Pip]DPHE[Hyp]W[Dab][Trp(1-CH2CONHSO2Me)][NMeNle][NMeNle]L[Pen]-NH2; thioether N-14) registered an IC50 of 1 to 9.9 nM.
The same measure, in the same setting: the value for `CCCC[C@H]1C(=O)N(C)[C@@H](CCCC)C(=O)N[C@@H](CC(C)C)C(=O)N[C@H](C(N)=O)C(C)(C)SCC(=O)N[C@@H](Cc2ccc(OC)cc2)C(=O)N2CCCC[C@H]2C(=O)N[C@@H](CC(=O)O)C(=O)N2CCC[C@H]2C(=O)N[C@@H](CN)C(=O)N[C@@H](CCC(=O)O)C(=O)N2C[C@H](O)C[C@H]2C(=O)N[C@@H](Cc2c[nH]c3ccccc23)C(=O)N[C@@H](CCN)C(=O)N[C@@H](Cc2cn(CC(=O)NS(C)(=O)=O)c3ccccc23)C(=O)N1C` [Example 1004] ({CH2CO}-Y(Me)[Pip]DP[Dap]E[Hyp]W[Dab][Trp(1-CH2CONHSO2Me)][NMeNle][NMeNle]L[Pen]-NH2; thioether N-14) was 1 to 9.9 nM; that for `CCCC[C@H]1C(=O)N(C)[C@@H](CCCC)C(=O)N[C@@H](CC(C)C)C(=O)N[C@H](C(N)=O)C(C)(C)SCC(=O)N[C@@H](Cc2ccc(OC)cc2)C(=O)N2CCCC[C@H]2C(=O)N[C@@H](CC(=O)O)C(=O)N2CCC[C@H]2C(=O)N[C@@H](Cc2cnc[nH]2)C(=O)N[C@@H](CCC(=O)O)C(=O)N2C[C@H](O)C[C@H]2C(=O)N[C@@H](Cc2c[nH]c3ccccc23)C(=O)N[C@@H](CCN)C(=O)N[C@@H](Cc2cn(CC(=O)NS(C)(=O)=O)c3ccccc23)C(=O)N1C` [Example 1007] ({CH2CO}-Y(Me)[Pip]DPHE[Hyp]W[Dab][Trp(1-CH2CONHSO2Me)][NMeNle][NMeNle]L[Pen]-NH2; thioether N-14) was 1 to 9.9 nM; that for `CCCC[C@H]1C(=O)N(C)[C@@H](CCCC)C(=O)N[C@@H](CC(C)C)C(=O)N[C@H](C(=O)NCC(N)=O)CSCC(=O)N[C@@H](Cc2ccc(O)cc2)C(=O)N(C)[C@@H](C)C(=O)N[C@@H](CC(N)=O)C(=O)N2CCC[C@H]2C(=O)N[C@@H](CN)C(=O)N[C@@H](CC(C)C)C(=O)N2C[C@H](O)C[C@H]2C(=O)N[C@@H](Cc2c[nH]c3ccccc23)C(=O)N[C@@H](CCN)C(=O)NC(Cn2cc(CC(=O)O)c3ncccc32)C(=O)N1C` (some centres unmarked) [Example 10003] ({CH2CO}-Y[NMeA]NP[Dap]L[Hyp]W[Dab][X2][NMeNle][NMeNle]LCG-NH2; thioether N-14) was 100 to 990 nM.
